# Experimental data: US12365692B2, “6-hydroxy-8-oxatricyclo[3.2.1.02,4]octane-2-carboxamide derivatives for inducing chondrogenesis for treating joint damage” (NOVARTIS AG, priority 2018, dated 2025)
# Tested on: ALP in NHAC (normal human articular chondrocytes)
# Test: Alkaline Phosphatase (ALP) activity assay: ALP staining and quantitation in NHACs (prevention of chondrocyte hypertrophy)
# Format: cell-based
# Conditions: Chondrocyte, 288 h, human IL-1 beta 10 ng/mL, 12 days; for IC50: Fast Blue RR staining, high content imaging; for Emax: read-out: ALP in NHAC (% Efficacy)
# Description: The compounds of the present invention were evaluated in the Alkaline Phosphatase (ALP) activity assay to determine the ability of the compounds to prevent chondrocyte hypertrophy in normal human articular chondrocytes (NHACs).
# Normal human articular chondrocytes (NHACs) were purchased from PromoCell (Heidelberg, Germany) and grown in Chondrocyte Growth Medium (CGM; Lonza, Walkersville, Md.).
# NHACs were expanded in Chondrocyte Growth Medium (CGM) from Lonza until they reached a 60-80% confluency. To initiate differentiation, 7,500 cells were plated/well with indicated test compound dose in 384-well Cell Carrier Ultra plates (Perkin Elmer) with DMEM (SH30022—HyClone) containing 10% FBS (35-015-CV—Corning), 1% Pen/Strep antibiotics (SV30010—HyClone), and 1% Normocin (50 mg/mL—InvivoGen). Cells with test compounds were incubated at 37° C., 5% CO2 for 5 hours and then added human IL-1 beta (AF-200-1B—Peprotech) to each well at a final concentration of 10 ng/mL and incubated at 37° C., 5% CO2 for 12 days.
# To detect the presence of hypertrophic cells, NHACs were fixed with 4% paraformaldehyde and Hoechst 33342 (Invitrogen) dye for 30 minutes, rinsed in PBS, then stained with Fast Blue RR Salt (F0500—Sigma) with Naphthol AS-MX Phosphate Alkaline Solution, 0.25% (855—Sigma-Aldrich).
# The staining was imaged by fluoresecent microscopy, using the 561 nm wavelength, and/or quantified by high content imaging with the ImageXpress Confocal (Molecular Devices, Sunnyvale, CA). Data analyses were performed with a customized multiwavelength cell-scoring application The activity of the compounds of the present invention in the ALP assay is summarized in Table 2.
smiles,measurement,value
"Cc1ccc(C(F)(F)F)cc1NC(=O)[C@]12C[C@@]1(c1ccnc(F)c1)[C@H]1O[C@@H]2C[C@@H]1O (racemic) [Example 13, rac-(1R,2R,4S,5R,6S)-4-(2-fluoropyridin-4-yl)-6-hydroxy-N-(2-methyl-5-(trifluoromethyl)phenyl)-8-oxatricyclo[3.2.1.02,4]octane-2-carboxamide]",IC50,> 30 µM
same,Emax,40%
"CCOc1ccc(NC(=O)[C@]23C[C@@]2(c2cn(C)nc2C(F)(F)F)[C@H]2O[C@@H]3C[C@@H]2O)cc1C(F)(F)F (racemic) [Example 65, rac-(1R,2R,4S,5R,6S)—N-(4-ethoxy-3-(trifluoromethyl)phenyl)-6-hydroxy-4-(1-methyl-3-(trifluoromethyl)-1H-pyrazol-4-yl)-8-oxatricyclo[3.2.1.02,4]octane-2-carboxamide]",IC50,12 µM
same,Emax,84%
"COc1cc([C@@]23C[C@]2(C(=O)Nc2ccc(C(F)(F)F)c(Cl)c2)[C@H]2C[C@H](O)[C@@H]3O2)ccn1 (racemic) [Example 74, rac-(1R,2R,4S,5R,6S)—N-(3-chloro-4-(trifluoromethyl)phenyl)-6-hydroxy-4-(2-methoxypyridin-4-yl)-8-oxatricyclo[3.2.1.02,4]octane-2-carboxamide]",IC50,3.4 µM
same,Emax,77%
"Cn1cc([C@@]23C[C@]2(C(=O)Nc2cc(C(F)(F)F)ccn2)[C@H]2C[C@H](O)[C@@H]3O2)c(C(F)(F)F)n1 (racemic) [Example 43, rac-(1R,2R,4S,5R,6S)-6-hydroxy-4-(1-methyl-3-(trifluoromethyl)-1H-pyrazol-4-yl)-N-(4-(trifluoromethyl)pyridin-2-yl)-8-oxatricyclo[3.2.1.02,4]octane-2-carboxamide]",IC50,> 30 µM
same,Emax,49%
"Cn1cc([C@@]23C[C@]2(C(=O)Nc2ccc(C(F)(F)F)c(Cl)c2)[C@H]2C[C@H](O)[C@@H]3O2)c(C(F)(F)F)n1 (racemic) [Example 40, rac-(1R,2R,4S,5R,6S)—N-(3-chloro-4-(trifluoromethyl)phenyl)-6-hydroxy-4-(1-methyl-3-(trifluoromethyl)-1H-pyrazol-4-yl)-8-oxatricyclo[3.2.1.02,4]octane-2-carboxamide]",IC50,9.5 µM
same,Emax,91%
"Cc1ccc(NC(=O)[C@]23C[C@@]2(c2ccnc(F)c2)[C@H]2O[C@@H]3C[C@@H]2O)cc1C(F)(F)F (racemic) [Example 11, rac-(1R,2R,4S,5R,6S)-4-(2-fluoropyridin-4-yl)-6-hydroxy-N-(4-methyl-3-(trifluoromethyl)phenyl)-8-oxatricyclo[3.2.1.02,4]octane-2-carboxamide]",IC50,> 30 µM
same,Emax,0%
"COc1cc([C@@]23C[C@]2(C(=O)Nc2ccc(Cl)c(C(F)(F)F)c2)[C@H]2C[C@H](O)[C@@H]3O2)ccn1 (racemic) [Example 70, rac-(1R,2R,4S,5R,6S)—N-(4-chloro-3-(trifluoromethyl)phenyl)-6-hydroxy-4-(2-methoxypyridin-4-yl)-8-oxatricyclo[3.2.1.02,4]octane-2-carboxamide]",IC50,> 30 µM
same,Emax,39%
"O=C(Nc1ccc(C(F)(F)F)c(Cl)c1)[C@]12C[C@@]1(c1ccnc(F)c1)[C@H]1O[C@@H]2C[C@@H]1O (racemic) [Example 3, rac-(1R,2R,4S,5R,6S)—N-(3-chloro-4-(trifluoromethyl)phenyl)-4-(2-fluoropyridin-4-yl)-6-hydroxy-8-oxatricyclo[3.2.1.02,4]octane-2-carboxamide]",IC50,12 µM
same,Emax,71%
"Cn1cc([C@@]23C[C@]2(C(=O)Nc2ccc(C(F)(F)F)c(F)c2)[C@H]2C[C@H](O)[C@@H]3O2)c(C(F)(F)F)n1 (racemic) [Example 41, rac-(1R,2R,4S,5R,6S)-N-(3-fluoro-4-(trifluoromethyl)phenyl)-6-hydroxy-4-(1-methyl-3-(trifluoromethyl)-1H-pyrazol-4-yl)-8-oxatricyclo[3.2.1.02,4]octane-2-carboxamide]",IC50,3.1 µM
same,Emax,84%
"O=C(Nc1cccc(C(F)(F)F)c1)[C@]12C[C@@]1(c1ccnc(C(F)(F)F)c1)[C@H]1O[C@@H]2C[C@@H]1O (racemic) [Example 66, rac-(1R,2R,4S,5R,6S)-6-hydroxy-N-(3-(trifluoromethyl)phenyl)-4-(2-(trifluoromethyl)pyridin-4-yl)-8-oxatricyclo[3.2.1.02,4]octane-2-carboxamide]",IC50,24 µM
same,Emax,62%
"COc1cc([C@@]23C[C@]2(C(=O)Nc2cc(C)cc(C(F)(F)F)c2)[C@H]2C[C@H](O)[C@@H]3O2)ccn1 (racemic) [Example 29, rac-(1R,2R,4S,5R,6S)-6-hydroxy-4-(2-methoxypyridin-4-yl)-N-(3-methyl-5-(trifluoromethyl)phenyl)-8-oxatricyclo[3.2.1.02,4]octane-2-carboxamide]",IC50,10 µM
same,Emax,74%
"N#Cc1cc(NC(=O)[C@]23C[C@@]2(c2ccnc(F)c2)[C@H]2O[C@@H]3C[C@@H]2O)cc(C(F)(F)F)c1 (racemic) [Example 77, rac-(1R,2R,4S,5R,6S)—N-(3-cyano-5-(trifluoromethyl)phenyl)-4-(2-fluoropyridin-4-yl)-6-hydroxy-8-oxatricyclo[3.2.1.02,4]octane-2-carboxamide]",IC50,> 30 µM
same,Emax,29%
"N#Cc1ccc(NC(=O)[C@]23C[C@@]2(c2cccc(C(F)(F)F)c2)[C@H]2O[C@@H]3C[C@@H]2O)cc1C(F)(F)F (racemic) [Example 79, rac-(1R,2R,4S,5R,6S)—N-(4-cyano-3-(trifluoromethyl)phenyl)-6-hydroxy-4-(3-(trifluoromethyl)phenyl)-8-oxatricyclo[3.2.1.02,4]octane-2-carboxamide]",IC50,9.9 µM
same,Emax,78%
"CCOc1cc(C(F)(F)F)cc(NC(=O)[C@]23C[C@@]2(c2ccnc(OC)c2)[C@H]2O[C@@H]3C[C@@H]2O)n1 (racemic) [Example 25, rac-(1R,2R,4S,5R,6S)—N-(6-ethoxy-4-(trifluoromethyl)pyridin-2-yl)-6-hydroxy-4-(2-methoxypyridin-4-yl)-8-oxatricyclo[3.2.1.02,4]octane-2-carboxamide]",IC50,> 30 µM
same,Emax,0%
"COc1cc(NC(=O)[C@]23C[C@@]2(c2ccnc(OC)c2)[C@H]2O[C@@H]3C[C@@H]2O)cc(C(F)(F)F)c1 (racemic) [Example 35, rac-(1R,2R,4S,5R,6S)-6-hydroxy-N-(3-methoxy-5-(trifluoromethyl)phenyl)-4-(2-methoxypyridin-4-yl)-8-oxatricyclo[3.2.1.02,4]octane-2-carboxamide]",IC50,> 30 µM
same,Emax,0%
"COc1ccc(C(F)(F)F)cc1NC(=O)[C@]12C[C@@]1(c1cn(C)nc1C(F)(F)F)[C@H]1O[C@@H]2C[C@@H]1O (racemic) [Example 62, rac-(1R,2R,4S,5R,6S)-6-hydroxy-N-(2-methoxy-5-(trifluoromethyl)phenyl)-4-(1-methyl-3-(trifluoromethyl)-1H-pyrazol-4-yl)-8-oxatricyclo[3.2.1.02,4]octane-2-carboxamide]",IC50,> 30 µM
same,Emax,26%
"Cc1cc(C(F)(F)F)cc(NC(=O)[C@]23C[C@@]2(c2cn(C)nc2C(F)(F)F)[C@H]2O[C@@H]3C[C@@H]2O)n1 (racemic) [Example 47, rac-(1R,2R,4S,5R,6S)-6-hydroxy-4-(1-methyl-3-(trifluoromethyl)-1H-pyrazol-4-yl)-N-(6-methyl-4-(trifluoromethyl)pyridin-2-yl)-8-oxatricyclo[3.2.1.02,4]octane-2-carboxamide]",IC50,> 30 µM
same,Emax,36%
